Source: patent US9801960B2, “Probe for a biological specimen and labelling method and screening method using the probe” (CANON KABUSHIKI KAISHA, priority 2008, dated 2017)

Assays:
[1] = Storage stability of staining compound solution in DMSO; type: physicochemical; details: 10 ng/mL in DMSO, closed glass container, normal temperature, 1 month; rate of change of absorbance and fluorescence intensity
Procedure, shortened: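 Compounds held as 10 ng/mL DMSO solutions in closed glass containers at normal temperature for 1 month. Rates of change in absorbance and fluorescence intensity at a given wavelength versus start were scored: +++ <5%, ++ 5–15%, − >15%.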

[2] = Excitation and fluorescence emission wavelength measurement; type: physicochemical; design: Stokes shift (λem − λex): unit not given here; details: aqueous solution: 10 mg/mL solution in DMSO diluted 500-fold with purified water
Method: It should be noted that the excitation wavelength and the fluorescence emission wavelength of the staining compound were determined by measuring an aqueous solution, which had been obtained by diluting 500-fold a 10 mg/mL solution of the staining compound in DMSO with purified water, with a fluorescence spectrophotometer FL 4500 manufactured by Hitachi High-Technologies Corporation.

Zebrafish liver section = assay: Ex vivo labelling: tissue section of stained Zebrafish; design: key to Staining property: +++: stained; −: no stained; key to Fluorescence sensitivity: +++: strongly observed; ++: moderately observed; +: weakly observed; −: no stained; details: 50 μm, fish stained as in Example 5, PFA fixed
Method: Zebrafish which had been stained by the operation in Example 5 was taken out and fixed with a 4% solution of paraformaldehyde (PFA) in PBS. After that, a tissue section having a thickness of 50 μm was prepared with a linear slicer PRO7 (manufactured by Dosaka EM Co., Ltd.) (Table 3). The section was collected on an MAS-coated slide glass (manufactured by Matsunami Glass Ind., Ltd.), mounted with Fluoromount G (manufactured by Southern Biotechnology), and then covered with a cover glass.

Zebrafish juveniles = assay: In vivo labelling of Zebrafish juveniles with probe for biological specimen; design: key to Staining property: +++: stained; −: no stained; key to Fluorescence sensitivity: +++: strongly observed; ++: moderately observed; +: weakly observed; −: no stained; details: 1 hour; for Fluorescence sensitivity / Staining property: 10 ng/mL; for Fluorescence sensitivity: fluorescence intensity visually evaluated; for Staining property: visually evaluated; for Site(s) to be labelled: 10 ng/mL in water, stereoscopic microscope
Procedure, shortened: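 Five zebrafish juveniles were immersed in distilled water containing staining compound at 10 ng/mL (DMSO solution) for 1 hour. They were then washed three times with Egg Water, immobilised in 3% methylcellulose and imaged by stereomicroscope. Staining and fluorescence intensity were scored visually on a +++ to − scale.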

[3] = system: human small intestine section; assay: In vitro labelling of human frozen tissue section slide; type: cell-based; design: key to Staining property: +++: stained; −: no stained; key to Fluorescence sensitivity: +++: strongly observed; ++: moderately observed; +: weakly observed; −: no stained; details: 10 ng/mL aqueous solution, 1 hour
Method: (§1) A human frozen tissue section slide (manufactured by BioChain Institute, Inc.) shown in Table 3 was immersed in a 10 ng/mL aqueous solution of each of the staining compounds shown in Table 3 for 1 hour. Next, the slide was washed three times with PBS for 10 minutes, mounted with Fluoromount G (manufactured by Southern Biotechnology), and then covered with a cover glass.

[4] = system: human liver tumor section; assay: as above; type: cell-based; design: key to Staining property: +++: stained; −: no stained; key to Fluorescence sensitivity: +++: strongly observed; ++: moderately observed; +: weakly observed; −: no stained; details: 10 ng/mL aqueous solution, 1 hour
Method: as §1

## COc1ccc2cc(N3c4ccc(/C=C(\C#N)C(=O)O)cc4C4CCCC43)ccc2c1 (centres unmarked) [Dye 6]
[1]
  Storage stability: +++ (rates of change of the absorbance and the fluorescence intensity are less than 5%, and thus, the storage stability is highly excellent)
[2]
  Excitation wavelength λex: 474 nm
  Fluorescence emission wavelength λem: 610 nm
  Stokes shift (λem − λex): 136
Zebrafish liver section
  Fluorescence sensitivity: +++
  Staining property: +++
Zebrafish juveniles
  Fluorescence sensitivity: +++
  Staining property: +++

## CCN1C(=O)/C(=c2\s/c(=C/c3ccc4c(c3)C3CCCC3N4c3ccc(SC)cc3)c(=O)n2CC(=O)O)SC1=S (centres unmarked) [Dye 18]
[3]
  Fluorescence sensitivity: +++
  Staining property: +++
[1]
  Storage stability: +++ (rates of change of the absorbance and the fluorescence intensity are less than 5%, and thus, the storage stability is highly excellent)
[2]
  Excitation wavelength λex: 570 nm
  Fluorescence emission wavelength λem: 699 nm
  Stokes shift (λem − λex): 129
Zebrafish juveniles
  Site(s) to be labelled: blood vessel, gallbladder, and gastrointestinal
  Fluorescence sensitivity: +++
  Staining property: +++

## O=C(O)C[n+]1c(/C=C/c2cc(Br)c3c(c2)C2CCCC2N3c2ccccc2)sc2ccccc21 (centres unmarked) [Dye 23]
[4]
  Fluorescence sensitivity: +++
  Staining property: +++
[1]
  Storage stability: +++ (rates of change of the absorbance and the fluorescence intensity are less than 5%, and thus, the storage stability is highly excellent)
[2]
  Excitation wavelength λex: 545 nm
  Fluorescence emission wavelength λem: 636 nm
  Stokes shift (λem − λex): 91
Zebrafish juveniles
  Site(s) to be labelled: nose
  Fluorescence sensitivity: +++
  Staining property: +++
